What was measured:
Assay type in all cases: cell-based, mouse
CD44+CD62L- CD8+ T cells = assay: ICS, peptide-immunized Ifnar-/- HLA-B*0702 mice challenged with ZIKV; conditions: mice immunized with the 3 ZIKV immunodominant epitopes, day 3 after ZIKV challenge
From the text: Two HLA-B*0702-binding ZIKV-specific peptides (FSS-NS2A133-141(SEQ ID NO: 41) and FSS/MR766-NS2B68-75 (SEQ ID NO: 45)) and four ZIKV/DENV cross-reactive peptides (FSS/MR766-NS4B426-435 (SEQ ID NO: 60), FSS/MR766-NS2A75-84 (SEQ ID NO: 39), FSS/MR766-NS3206-215 (SEQ ID NO: 47), and FSS/MR766-NS3574-582 (SEQ ID NO: 52)) were chosen for synthesis. Five HLA-A*0101-binding peptides (FSS/MR-E159-167 (SEQ ID NO: 70), FSS/MR-E195-203 (SEQ ID NO: 71), FSS/MR-NS123-31 (SEQ ID NO: 74), FSS/MR-NS4B231-239 (SEQ ID NO: 77), and FSS/MR-NS5509-517 (SEQ ID NO: 79)) were chosen for synthesis. Mice (both female and male; 5-6 weeks of age) were immunized subcutaneously with a mixture of HCV helper peptide (100 μg/mouse) and 3 or 4 HLA-B*0702-binding peptides (50 μg/peptide/mouse) emulsified in Complete Freund's Adjuvant (CFA). Mock group mice received the same immunization strategy but without any ZIKV-specific or ZIKV/DENV cross-reactive peptide. On the 21st day, mice were boosted with the same peptide mixtures emulsified in Incomplete Freund's Adjuvant (IFA). […] Three days post ZIKV infection mice were sacrificed, and serum and spleen were harvested. The splenocytes were used for ICS assay. After cardiac perfusion with PBS, brain was harvested. The levels of infectious ZIKV in serum and brain were measured using FFA.
(§1) Spleens were harvested from virus-infected, mock-immunized, or peptide-immunized mice. 1×10^6 splenocytes were plated in each well of 96-well U-bottom plates and stimulated with individual peptide (10 μg crude peptide or 1 μg pure peptide per well) for 6 hours. Five hours before the end of incubation, Brefeldin A (GolgiPlug; BD Biosciences) and PE-conjugated anti CD107a mAb (clone 1D4B, eBioscience) were added to the cells. Splenocytes stimulated with PMA-ionomycin were used as the positive control, while cells without any stimulation were the negative control. […] Samples were run using an LSR™ II (BD Biosciences) and analyzed using FLOWJO™ software X 10.0.7 (Tree Star, Ashland, Oreg.).
Peptide groups received corresponding peptide immunizations as described in Materials and Methods. […] CD3^+CD8^+CD44^+CD62L− T cells were gated and the percentages of IFNγ^+ and/or TNFα^+ cells in a representative mouse from mock (FIG. 12A) and peptide (FIG. 12B) groups were determined by ICS. The levels of infectious ZIKV in sera and brains were measured via FFA. Data were expressed as mean±SEM. *, P<0.05; **, P<0.01; ***, P<0.001. Two-tailed Mann-Whitney test.

CD3+CD8+ T cells = assay: IFNγ ICS, ZIKV-infected Ifnar-/- HLA-B*0702 transgenic mice; conditions: for % IFNγ+ CD8+ T cells, FSS13025 / % IFNγ+ CD8+ T cells, MR766: HLA-B*0702 mice; for % IFNγ+ CD8+ T cells, FSS13025: 7 days after ZIKV FSS13025, ICS; for % IFNγ+ CD8+ T cells, MR766: 7 days after ZIKV MR766, ICS
Method: (§2) Two ZIKV strains, MR766 (Uganda, 1947) and FSS13025 (Cambodia, 2010), were obtained from the World Reference Center for Emerging Viruses and Arboviruses (WRCEVA). The mouse-adapted DENV2 strain S221 is a triple-plaque purified clone derived from DENV2 D2S1038. Both ZIKV and DENV2 were amplified in C6/36 mosquito cells, and viral titers were measured using baby hamster kidney (BHK)-21 cell-based focus forming assay (FFA). For epitope screening, 5-week old mice (female or male) were infected retro-orbitally (R.O.) with either 1×102 FFU of ZIKV FSS13025 or ZIKV MR766, or 2×10^4 FFU of DENV2 S221 in 200 μl 10% FBS/PBS. Seven days after infection, CD8^+ T cells were isolated from splenocytes and used for ELISPOT assay, while the splenocytes were directly used for ICS assay. Additionally, 5-week old mice were inoculated I.P. with 2×10^3 FFU of DENV2 S221 for 4 weeks.
as §1
Data represent the average of two independent experiments and are expressed as mean±SEM. *, P<0.05; **, P<0.01; Two-tailed Mann-Whitney test. P/I denotes PMA/ionomycin.

CD8+ T cells [1] = assay: IFNγ ELISPOT, ZIKV-infected Ifnar-/- HLA-B*0702 transgenic mice; conditions: HLA-B*0702 mice; for SFC/10^6 CD8+ T cells, FSS13025: 7 days after 1×10^2 FFU ZIKV FSS13025; for SFC/10^6 CD8+ T cells, MR766: 7 days after 1×10^2 FFU ZIKV MR766; for immunodominance in IFNγ ELISPOT: immunodominant: >500 SFCs/10^6 CD8+ T cells, shared by both ZIKV strains
Method: as §2
(§3) CD8^+ T cells were isolated from splenocytes using magnetic bead positive selection (Miltenyi Biotec, Germany) 7 days after virus infection. 2×10^5 CD8^+ T cells were stimulated with 1×10^5 LPS-blasts loaded with 10 μg of individual peptide in 96-well flat-bottom plates (IMMOBILON™-P; Millipore, Bedford, Mass.) that were coated with anti-IFNγ mAb (clone AN18; Mabtech, Stockholm, Sweden) in triplicate. Concanavalin A (ConA) was used as positive control. After 20 hours of incubation, biotinylated anti-mouse IFNγ mAb (R4-6A2; Mabtech), followed by ABC peroxidase (Vector Laboratories, Burlingame, Calif., USA) and then 3-amino-9-ethylcarbazole (Sigma-Aldrich, St. Louis, Mo., USA) were added into the wells. […] A peptide inducing a magnitude of >500 SFCs/10^6 CD8^+ T cells was considered as an immunodominant peptide.
Two independent experiments performed in triplicate were averaged and the error bars represent the SEM. The data are expressed as the mean number of spot forming cells (SFC) per 10^6 CD8^+ T cells. The criteria for positivity were net SFC per 10^6 cells of >20, and a stimulation index of >2.0 when compared with the negative control. Dotted lines represent the cutoff value. * Indicates a positive response. […] ConA denotes Concanavalin A.

CD8+ T cells [2] = assay: IFNγ ELISPOT, DENV2 S221-infected Ifnar-/- HLA-B*0702 transgenic mice; conditions: HLA-B*0702 mice, 7 days after 2×10^4 FFU DENV2 S221
Method: as §2, §3
(§4) The following results are with respect to FIG. 14A and FIG. 14B, where Ifnar^−/− HLA-B*0702 transgenic mice were infected R.O. with 2×10^4 FFU of DENV2 strain S221 for 7 days. CD8^+ T cells isolated from splenocytes were stimulated with each of the 37 ZIKV epitopes identified via IFNγELISPOT to perform (FIG. 14A) IFNγELISPOT and (FIG. 14B) ICS assay. Data represent the average of two independent IFNγELISPOT experiments and two independent ICS experiments (n=7 mice) and are expressed as mean±SEM. Dotted line corresponds to the cutoff value. *, P<0.05.

CD8+ T cells [3] = assay: IFNγ ICS, DENV2 S221-infected Ifnar-/- HLA-B*0702 transgenic mice; conditions: HLA-B*0702 mice
Method: as §2, §1, §4

CD8+ T cells [4] = assay: ICS, DENV2-immune Ifnar-/- HLA-B*0702 mice challenged with ZIKV FSS13025; conditions: day 3 after ZIKV FSS13025 challenge
Method: as §2
Spleens were harvested from virus-infected, mock-immunized, or peptide-immunized mice. 1×10^6 splenocytes were plated in each well of 96-well U-bottom plates and stimulated with individual peptide (10 μg crude peptide or 1 μg pure peptide per well) for 6 hours. Five hours before the end of incubation, Brefeldin A (GolgiPlug; BD Biosciences) and PE-conjugated anti CD107a mAb (clone 1D4B, eBioscience) were added to the cells. Splenocytes stimulated with PMA-ionomycin were used as the positive control, while cells without any stimulation were the negative control. After incubation, cells were first stained with PERCPCY™ 5.5-conjugated anti-CD3 mAb (Clone 145-2C11, TONBO), PE-CY7™-conjugated anti-CD8 mAb (clone 53-67, BD Biosciences), EFLUOR™ 450-conjugated anti-CD44 mAb (clone IM7, eBioscience), and APC eFluor 780-conjugated anti-CD62L mAb (clone Mel-14, eBioscience). Cells were then fixed and permeabilized using CYTOFIX/CYTOPERM™ solution (BD Biosciences), followed by staining with FITC-conjugated anti-IFNγ mAb (clone XMG 1.2, TONBO) and APC-conjugated anti-TNFα mAb (clone MP6-XT22, eBioscience). Samples were run using an LSR™ II (BD Biosciences) and analyzed using FLOWJO™ software X 10.0.7 (Tree Star, Ashland, Oreg.).
The following results are with respect to FIG. 11 to FIG. 11E, where Ifnar^−/− HLA-B*0702 transgenic mice were inoculated I.P. with 2×10^3 FFU of DENV2 strain S221 for 4 weeks. Naive mice (n=5) and DENV2 strain S221-immune mice (n=5) were challenged R.O. with 1×10^4 FU of ZIKV FSS13025 for three days, and the percentages of peptide-specific IFNγ^+ and/or TNFα^+ CD8^+ T cells were detected by ICS (FIG. 11A and FIG. 11B). […] Data were expressed as mean±SEM. *, P<0.05; **, P<0.01; Two-tailed ann-Whitney test. Black “*” indicates ZIKV-specific response while bold “*” represents ZIKV/DENV cross-reactive response. All positive peptides were grouped according the ZIKV specificity of immune response (FIG. 11E). Numbers in parentheses indicate the number of positive peptides in this group.

Row | Sequence | percentage of IFNγ-producing cells among antigen experienced (CD44+CD62L-) CD8+ T cells (CD44+CD62L- CD8+ T cells) | % IFNγ+ CD8+ T cells, FSS13025 (CD3+CD8+ T cells) | % IFNγ+ CD8+ T cells, MR766 (CD3+CD8+ T cells) | simultaneous IFNγ and TNFα production by peptide-stimulated CD8+ T cells (CD3+CD8+ T cells; ZIKV MR766-infected mice) | SFC/10^6 CD8+ T cells, FSS13025 (CD8+ T cells [1]) [SFC/10^6 CD8+ T cells] | SFC/10^6 CD8+ T cells, MR766 (CD8+ T cells [1]) [SFC/10^6 CD8+ T cells] | immunodominance in IFNγ ELISPOT (CD8+ T cells [1]) | SFC/10^6 CD8+ T cells, S221 (CD8+ T cells [2]) [SFC/10^6 CD8+ T cells] | simultaneous IFNγ and TNFα secretion by peptide-stimulated CD8+ T cells (CD3+CD8+ T cells; mice infected with either ZIKV FSS13025 or ZIKV MR766) | % IFNγ+ CD8+ T cells, S221 (CD8+ T cells [3]; 7 days after DENV2 S221, ICS) | ZIKV/DENV cross-reactivity in DENV2-infected mice (IFNγ ELISPOT and IFNγ ICS) (CD8+ T cells [3]; DENV2 S221, 7 days) | percentage of epitope-specific IFNγ-producing CD8+ T cells (CD8+ T cells [4]) [%]
1 | SPRLDVAL [FSS/MR-NS2B68-75] | 0.61±0.47% | (0.56%) | (0.77%) | stimulated simultaneous production of IFNγ and TNFα | 963 | 993 | immunodominant |  |  |  |  | 
2 | TPRESMLLAL [FSS/MR-NS2A89-99] |  | (0.56%) | (0.95%) |  | 807 | 823 | immunodominant | 55 | simultaneously secreted both IFNγ and TNFα |  |  | 
3 | VPRTDNITL [FSS-NS2A133-141] | 0.86%±0.71 | (0.9%) | (1.07%) |  | 786 | 1182 | immunodominant |  |  |  |  | 
4 | VPTGRTTVV (VPTGRTTW) [FSS/MR-NS5539-546] |  |  | (0.25%) |  |  | 121 |  | 54 |  | (0.18%) | positive in both IFNγ ELISPOT and IFNγICS assays | 
5 | VVMILGGFSM [MR-NS2A31-40] |  |  | (0.37%) |  |  | 106 |  | 51 |  |  |  | 0.42±0.12
